According to patent publication US20170183306A1, “CYCLIC COMPOUNDS HAVING A 1,3 DIAMINO-FUNCTIONALITY FOR USE IN THE TREATMENT OF HIV INFECTION” (Universite Paris Descartes, priority 2014, published 2017):
Read-outs that look alike come from different tables or passages of the source.

Assays:
[1] = tested on: Laï virus in MT2 cells (human lymphocytic cell line); assay: MT2 cells infected with Laï virus, real-time PCR of viral RNA of the supernatant; assay type: cell-based, HIV-1; conditions: for viral RNA of the supernatant, 10 μM / viral RNA of the supernatant, 25 μM / viral RNA of the supernatant, 50 μM / viral RNA of the supernatant, 100 μM: 3 days of culture, control = virus without any added compound; for viral replication in human lymphocytes (in words): summary of Table 3
Experimental: In an experiment, MT2 cells (human lymphocytic cell line) are infected with the Laï virus to a multiplicity of infection of 0.3 and incubated with compounds A, B, C or D at four different concentrations.
After 3 days of culture, real-time PCR quantification of the viral RNA of the supernatant is performed (COBAS Ampliprep/COBAS TaqMan HIV-1 assay, version 2).
The results are expressed as percentage of control (virus without any added compound) in Table 3.

HIV = conditions: cited from earlier work
[2] = cited from earlier work
J-Lat cells = assay: J-Lat cells, percentage of GFP-positive cells by cytometry; assay type: cell-based; conditions: 24 h, compound alone
Procedure, shortened: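 J-Lat cells (5.105 per well, RPMI/10% FBS) treated 24 h with compound alone at 37 °C. After PFA fixation, GFP-positive cells counted by flow cytometry and reported as percentage of living fluorescent cells.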

[3] = tested on: wild type NL4-3 virus (HIV-1) in HeLa-p4 cells; assay: HeLa-p4 single-cycle HIV-1 infectivity, beta-galactosidase CPRG test; assay type: cell-based; conditions: Human immunodeficiency virus 1, NL43, HeLaP4, 48 hours after infection, control = NL4-3 virus alone; for activity at 50 µM: read-out: Hela-p4 CPRG 50 μM; for activity at 100 µM: read-out: Hela-p4 CPRG 100 μM
Procedure, shortened: (§1)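 HeLa CD4 LTR-LacZ cells infected with 1 ng p24 of wild-type NL4-3 alongside graded compound concentrations; β-galactosidase measured 48 h post-infection by CPRG colorimetry, expressed as percent of untreated virus control. Viability assessed by MTS absorbance at […].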

HeLa-p4 cells = assay: Cell viability assay (MTS) on HeLa-p4 cells; assay type: cell-based; conditions: cell viability
Procedure, shortened: as §1

[4] = tested on: HIV in T CD4+ cells from HIV-infected patients; assay: HIV production by CD4+ T cells of HIV-infected, antiretroviral-treated, aviremic patients (real time PCR); assay type: cell-based, HIV-1; conditions: one line per patient; for Compound: ratio of the viral load of interest/viral load of negative control: compound alone
Excerpt: For experiments using primary cells obtained from HIV-infected, antiretroviral-treated, aviremic patients, total CD4+ cells are isolated by a MACS) Whole Blood MicroBead Technology (Miltenyi). Briefly, T CD4+ cells from whole blood are magnetically labeled with MACS MicroBeads and specific antibodies. Cells are separated in a MACS Column placed in a MACS Separator. The flow-through fraction can be collected as the negative fraction depleted of the labeled cells. The column is removed from the separator and the retained cells are eluted as the enriched, positively selected cell fraction. The T CD4+ cells were then cultured with a T cell activation/expansion kit (Miltenyi). The cells are activated for up to 3 days with Anti-Biotin MACSiBead Particle conjugated to monoclonal anti-biotin antibodies (anti CD2-biotin, […] and anti CD28-biotin). Expansion is achieved by adding IL-2 and fresh medium for 4 days. Then, these T CD4+ cells are considered as positive culture. A negative control was the same proportion of cells cultured without stimuli like antibodies and IL-2. The T CD4+ cells were cultured with compounds alone or in combination with antibodies or IL-2. The HIV production in cell culture media was measured by real time PCR (Cobas AmpliPrep/Cobas Taqman HIV-1 test, V2.0, Roche). The results are expressed in table 2 as a ratio of the viral load of interest/viral load of negative control or as a ratio of the viral load of interest/viral load of positive control.

## COC(=O)C(Cc1ccccc1)N1C[C@H](N)C[C@H](N)C1 (stereo partly drawn) [Compound B]
[1]
  viral RNA of the supernatant, 10 μM: 420 percentage of control
  viral RNA of the supernatant, 25 μM: 40 percentage of control
  viral RNA of the supernatant, 50 μM: 70 percentage of control
  viral RNA of the supernatant, 100 μM: 32400 percentage of control
  viral replication in human lymphocytes (in words): induce viral replication at an extremely high level

## CCN(CC)C(=S)SSC(=S)N(CC)CC [Disulfirame]
HIV
  capacity to induce HIV replication in clinical trial: low capacity to induce HIV replication

## C/C=C1\NC(=O)[C@H]2CSSCC/C=C/[C@H](CC(=O)N[C@H](C(C)C)C(=O)N2)OC(=O)[C@H](C(C)C)NC1=O [Romidepsin]
[2]; in vivo
  adverse effects in clinical trials: important adverse effects

## N[C@@H]1CNC[C@H](N)C1 [ECO01-025-C2, piperidine-3,5-diamine]
J-Lat cells
  J-lat 50 μM: 0.7 percentage of the living fluorescent cells
[3]
  activity at 50 µM: 166%
  activity at 100 µM: 280%
  activity at 200 µM: 317%
HeLa-p4 cells
  Hela-p4 MTS 50 μM: 104
  Hela-p4 MTS 100 μM: 79
  Hela-p4 MTS 200 μM: 70
[4]
  Compound: ratio of the viral load of interest/viral load of negative control: 1

## O=C(CCCCCCC(=O)Nc1ccccc1)NO [vorinostat]
[2]; first results of on-going clinical trials
  adverse effects in clinical trials: important adverse effects

## N[C@@H]1C[C@H](N)CN(c2ccc(NC(=O)c3ccccc3)c(O)c2)C1 [Compound C]
[1]
  viral RNA of the supernatant, 10 μM: 21200 percentage of control
  viral RNA of the supernatant, 25 μM: 83500 percentage of control
  viral RNA of the supernatant, 50 μM: 66400 percentage of control
  viral RNA of the supernatant, 100 μM: 931700 percentage of control
  viral replication in human lymphocytes (in words): induce viral replication at an extremely high level

## CC(C)(C)OC(=O)N[C@@H]1CNC[C@H](NC(=O)OC(C)(C)C)C1 [ECO02-051-C]
J-Lat cells
  J-lat 50 μM: 1.1 percentage of the living fluorescent cells
[3]
  activity at 50 µM: 124%
  activity at 100 µM: 200%
  activity at 200 µM: 397%
HeLa-p4 cells
  Hela-p4 MTS 50 μM: 95
  Hela-p4 MTS 100 μM: 96
  Hela-p4 MTS 200 μM: 77
[4]
  Compound: ratio of the viral load of interest/viral load of negative control: 1
[4]; compound in combination with IL2
  Compound + IL2: ratio of the viral load of interest/viral load of negative control: 1

## Cc1[nH]c2ccccc2c1CCNCc1ccc(/C=C/C(=O)NO)cc1 [LBH589]
[2]; in vivo
  adverse effects in clinical trials: important adverse effects

## COc1ccc(CCN2C[C@H](N)C[C@H](N)C2)cc1OC [Compound A]
[1]
  viral RNA of the supernatant, 10 μM: 130 percentage of control
  viral RNA of the supernatant, 25 μM: 60 percentage of control
  viral RNA of the supernatant, 50 μM: 50 percentage of control
  viral RNA of the supernatant, 100 μM: 73200 percentage of control
  viral replication in human lymphocytes (in words): induce viral replication at an extremely high level

## N[C@@H]1C[C@H](N)CN(C2Cc3ccccc3C2)C1 [ECO01-041-C, 1-(2,3-dihydro-1H-inden-2-yl)piperidine-3,5-diamine]
J-Lat cells
  J-lat 50 μM: 1.0 percentage of the living fluorescent cells
J-Lat cells; 100 μM
  J-lat 100 μM: 0.1 percentage of the living fluorescent cells
[3]
  activity at 50 µM: 114%
  activity at 100 µM: 131%
HeLa-p4 cells
  Hela-p4 MTS 50 μM: 98
  Hela-p4 MTS 100 μM: 84
